The nature of series [1]: Weight of mice and overt signs of toxicity under peptide injection. In kind it is in vivo. The conditions noted are these: mice treated with cyclized HYD1. The protocol:
FIG. 37 is a graph showing the effect of cyclized HYD1 (MTI-101) injection on the weight of mice.
FIG. 49. Cyclic HYD1 (MTI-101) was dosed daily at 8 mpk for the first week and then every other day for 4 weeks. The mice were bled weekly to measure paraprotein as a surrogate for tumor burden. […] Three of five vehicle-treated control animals had died by 35 days which contributes to the large SD.

In the next series the test system is 5TGM1 cells. The experiment in a line: 5TGM1 murine in vivo myeloma model, survival. To be noted: 5TGM1 model, dosing 3× weekly for three weeks. Also noted: species or system C57BL/KaLwRij mice.
The subject of a further series is H929 cells. The series is described as follows: Growth inhibition by MTT, combination index (CalcuSyn), 72 hours. It counts as cell-based, human. The conditions noted are these: H929, 72 hours. How it is done: FIGS. 59A-59B. H929 cells were treated with varying concentrations of MTI-101 alone or in combination with either chloroquine (FIG. 59A), or bortezomib (FIG. 59B). Following 72 hours of drug treatment growth inhibition was determined by MTT analysis. Data generated were used to calculate the combination index (CI) using CalcuSyn software developed by Chou and Talalay. MTI-101 is synergistic with bortezomib (a proteosome inhibitor) and chloroquine (an inhibitor of autophagy).

Series [2] deals with U937 cells co-cultured with HS-5/GFP cells. The experiment in a line: Co-culture bone marrow stroma (HS-5/GFP) model of drug resistance (CAM-DR), annexin V and FACS. It counts as cell-based. To be noted: HS-5/GFP co-culture 24 hours prior to drug. The protocol: FIGS. 63A-63C. MTI-101 induces cell death in AML cell lines without succumbing to CAM-DR. HS-5/GFP cells were co-cultured with U937 cells for 24 hours prior to addition of 100 nM Mitoxantrone (FIG. 63A) or varying concentrations of MTI-101 (FIG. 63B). […] Cell death was measured in the GFP negative AML cells using annexin V to detect dead cells and FACS analysis. Cells cultured in suspension were used as a reference sample for drug sensitivity.

Series [3] has as its system CD34+ cells from primary AML samples. The series is described as follows: Cell death in primary CD34+ AML cells. In kind it is cell-based, human. The conditions noted are these: 24 hours. How it is done: FIG. 45. Primary CD34+AML cells are sensitive to HM-27 (MTI-101) while their normal counterparts are not. Enriched CD34+ cells from peripheral blood and bone marrow of normal individuals were treated with varying doses of HM-27 for 24 hours and then analyzed for cell death as described in the Materials and Methods.
FIG. 64. MTI-101 induces cell death in primary CD34 progenitor cells from AML patient. […] CD34-positive cells were enriched using immunomagnetic beads in primary AML samples and normal bone marrow aspirates. Cell death was measured by annexin V positivity and FACS analysis.
Cells were collected after incubation with HM-27 and analyzed for markers of cell death indicative of either apoptosis, autophagy or necrosis. BM-MNCs were isolated from marrow aspirates of AML patients and normal individuals by Ficoll-Paque centrifugation and further enriched for CD34+ cells using immunomagnetic beads. Cell death was assessed by TO-PRO-3 staining followed by FACS analysis.

Series [4] has as its system PC9 and HCC4006 cells (activating EGFR mutations). The experiment in a line: MTT survival, combination index with EGFR inhibitor, 72 hours. In kind it is cell-based. The conditions noted are these: PC9 or HCC4006 cells. The protocol:
FIG. 68. MTI-101 and EGFR inhibitors are synergistic in cell lines with activating EGFR mutations. Cell lines with activating EGFR mutations (PC9 and HCC4006) were treated with varying concentrations of erlotinib or MTI-101 (also referred to as HM-27) for 72 hours and survival was assayed by MTT analysis. Generated data were used to calculate combination index (CI).
FIG. 69. MTI-101 plus EGFR inhibitors are synergistic in lung cancer cell lines with EGFR activating mutations, and MTI-101 plus MEK inhibitors are synergistic in cell lines arboring activating RAS or BRAFF mutations. Values indicate average calculated combination index (CI). Additive (CI=1), synergism (CI<1) and, antagonism (CI>1). […] Cell viability was measured by the MTT assay. Data generated were used to calculate a Chou and Talalay Combination Index (CI).

The test system of series [5] is phospho-ERK and CD44-associated PYK2 in NCI-H929 and U266 MM cells. The series is described as follows: Signal transduction in MM cells (pErk, CD44 immunoprecipitation probed for Pyk2, Src). In kind it is cell-based. The conditions noted are these: 5 uM H929 and 10 uM U226 cells. How it is done: FIGS. 55A-55D. […] NCI-H929 and U266 were treated with 5 uM and 10 uM HM-27 respectively for various time points before whole cell lysis in RIPA buffer and probed for pErk and tErk (FIGS. 55A, 55B).
FIGS. 58A-58D. […] MTI-101 activates ERK and Pyk2. Member of these pathways can be utilized as biomarkers of response. In addition, agents that target survival pathways can be used in combination with MTI-101 (data supporting this in AML).
The inventors performed a total membrane binding assay with biotin conjugated HYD1 and NeutrAvidin beads on NCI-H929 and U266 MM cells. Samples were then loaded on an SDS-PAGE gel, trypsin digested, and analyzed by Liquid Chromatography-Mass Spectrometry/Mass Spectrometry (LC-MS/MS). The adhesion receptor CD44 was determined to be among the adhesion receptors that had the most peptide match hits and was confirmed as a valid hit via Western Blot analysis using biotin as a control for non-specific binding. In order to assess the binding between CD44 and HYD1, 96-well NeutrAvidin coated plates were preincubated with biotin-HYD1 before the addition of increasing concentrations of full length recombinant human CD44. For more quantitative binding affinity analysis we produced the human globular ectodomain of CD44 comprising of amino acids 20-178. […]

Entries after “also recorded” stand apart in the source; their conditions may differ. *1 amine or outer side, *2 acyl side, *3 side chain or, on linkers, in order; H or OH if unused. Where a SMILES comes first, the peptide text is derived from it. Bridges are numbered along the chain shown (N, C = ends). [ ]: non-standard residue; d: D form. The star is where a group is joined. dProlinol(O-CH2CO) = O=C(COC[C@H]1CCCN1[*:1])[*:2]; N(2-Aminoethyl)Gly = O=C(CN(CCN[*:3])[*:1])[*:2]; Nle = CCCC[C@H](N)C(=O)O; Ms = CS(=O)(=O)*

Protocol for 5TGM1 cells: FIG. 61B: 5TGM1 model: One million 5TGM1 cells were injected i.v. in C57BL/KaLwRij mice and allowed to engraft for 10 days prior to drug treatment. The dosing scheme for all drugs was 3× weekly for three weeks. Surrogate markers of morbidity include hind leg paralysis and/or lethargic behavior. All mice were euthanatized at day 100.
One million 5TGM1 cells were injected i.v. in C57BL/KaLwRij mice and allowed to engraft for 10 days prior to drug treatment. […] The dosing scheme for melphalan was twice (day 10 and day 14).

As for `CCCC[C@@H]1NC(=O)CN(S(C)(=O)=O)CCNC(=O)[C@H](CCCCN)NC(=O)[C@H](CC(C)C)NC(=O)[C@H](CCCCN)NC(=O)[C@H](CC(C)C)NC(=O)[C@H](CCCCN)NC(=O)COC[C@H]2CCCN2C(=O)[C@H](Cc2c[nH]c3ccccc23)NC(=O)[C@H](C)NC(=O)[C@H](C(C)C)NC(=O)[C@H](C(C)C)NC1=O` [MTI-101] (Ms-[N(2-Aminoethyl)Gly][Nle]VVAW[dProlinol(O-CH2CO)]KLKLK; lactam 1-C), the “weight loss / signs of toxicity” value in series [1] is reported as “No weight loss or any overt signs of toxicity were observed”; in series [1] (listed as c-HYD1), “no apparent toxicity”. Besides, the “survival” value in the series on 5TGM1 cells was “increases survival in the 5TGM1 murine in vivo model”. Further, the “combination with bortezomib” value in the series on H929 cells is “synergistic”. Moreover, in the series on H929 cells, the “combination with chloroquine” value is on record as “synergistic”. Also, the “sensitivity in co-culture versus suspension” value in series [2] is recorded as “not resistant in the co-culture bone marrow stroma model of drug resistance”. The figures for the “cell death in primary AML CD34+ cells” value in series [3] and in series [3] (listed as HM-27) were “Primary AML specimens are sensitive to MTI-101 induced cell death” and “CD34+ cells from primary AML samples are sensitive to HM-27; also recorded: increased potency in samples from relapsed patients compared to specimens obtained from the newly diagnosed”, respectively. For the same compound, the “combination with EGFR inhibitor Erlotinib” value in series [4] is listed as “Synergistic growth inhibition”. In addition, the “phospho-ERK and CD44-associated PYK2 in MM cells” value in series [5] is “induces transient phospho-ERK and CD44-associated PYK2 complex in NCI-H929 and U266 MM cells”.

Source of the values: patent US20150071918A1, “PEPTIDES FOR THE TREATMENT OF CANCER” (H. LEE MOFFITT CANCER CENTER AND RESEARCH INSTITUTE, INC., priority 2012, published 2015).
